Assay results from patent US6436917B1, “Non-estrogenic estradiol derivative compounds with anti-oxidative activity” (Jenapharm GmbH & Co. KG, priority 1997, dated 2002).

What was measured:
[1] = Fe(II) oxidation assay (inhibition of Fe(II)-autooxidation); type: biochemical; settings: for FE(II)-AUTOXIDATION Inhibition, %: synaptosomal membrane/lipid fractions, 50 μM Fe(II) sulfate, pH 7.4, 10 min at 37° C., test concentration not given
Excerpt: The testing of the substances for Fe(II)-autooxidation inhibition activity occurs according to B. Ruiz-Larrea, et al, “Antioxidant effects of estradiol and 2-hydroxyestradiol on iron-induced lipid peroxidation of rat liver microsomes”, Steroids 39 (1994), pp. 383-388 and B. Ruiz-Larrea, et al, Effects of estrogens on the redox chemistry of iron: “A possible mechanism of the antioxidant action of estrogens”, Steroids 60 (1995), pp. 780-783.
All autooxidation experiments involving the Fe(II) ions were performed in aqueous solutions, which contain synaptosomal membrane/lipid fractions. A 1.0 ml biological sample containing 50 μM Fe(II) sulfate, 45 mM tris-HCl buffer (pH=7.4) and 0.08 mg of synaptosomal proteins were incubated with test substances dissolved in ethanol (10% v/v) for 10 min in a water bath at 37° C., subsequently stopped by addition of 50 μL of a 0.32 M 1,10-phenanthrolene solution and the extinction of Fe(II) phenanthroline complexes at 510 nm was measured.
All other biochemicals are of the highest analytical grade of purity. The test substances are preferably made in the form of a 20 millimolar stock solution in 95% ethanol and diluted immediately prior to the start of the experiment.

[2] = Fe(III) reduction assay (stimulation of Fe(III) reduction); type: biochemical; settings: 25 μM Fe(III) chloride, tris-HCl pH 7.4; test concentration not given
Excerpt: The testing of the substances for their ability to stimulate Fe(III) reduction occurs according to B. Ruiz Larrea, et al, “Antioxidant effects of estradiol and 2-hydroxyestradiol on iron-induced lipid peroxidation of rat liver microsomes”, Steroids 39 (1994), p. 383-388 and B. Ruiz-Larrea, et al, Effects of estrogens on the redox chemistry of iron: A possible mechanism of the antioxidant action of estrogens”, Steroids 60 (1995), pp. 780 to 783.
The biological sample contained the following components: 25 μM Fe(III) chloride in 150 mM tris-HCl (pH=7.4), 15 mM 1,10-phenanthrolene and the substance to be tested, dissolved in an ethanol vehicle. The formation of the Fe(II) phenanthroline complex is registered spectrophotometrically at 510 nm.

[3] = tested on: vaginal epithelium of ovariectomized rats; test: Allen-Doisy test, estrogenicity in vivo in ovariectomized rats (vaginal smears); design: species or system rat; settings: one-time subcutaneous administration d1, ovariectomized rats
Method: Estrogens lead to characteristic changes in vaginal epithelium in ovariectomized rodents. The upper cells become heavily cornified and a strong proliferation occurs. These changes in cell formation were determined by vaginal smears. The occurrence of cornified anuclear epithelial cells is an expression of estrogen-specific activity (Allen-Doisy Test).
Subcutaneous Testing for Estrogen Activity
Estrogens lead to characteristic changes in vaginal epithelium with ovariectomized rodents. Strong proliferation and cornification of the upper cell layer occurs. These changes are detectable in cells from vaginal smears. The occurrence of cornified anuclear epithelial cells is an expression of an estrogen-specific activity—i.e. the Allen-Doisy Test—according to R. J. Dorfman, (Hrsg.), Methods in Hormone Research, p. 72 ff, Academic Press, New York, 1969.
White Wistar Rats (origin: Shoe: WIST=Mol : WIST, n=48) that weighed from 180 to 200 g were supplied, divided randomly into trial groups (n=3 to 5 animals/group), habituated in supporting conditions for about one week and subsequently ovariectomized under anesthesia with ursotami.
The test substances for subcutaneous and oral administration were formulated in benzyl benzoate/castor oil (1+4) or in polyoxyethylene(50-stearate) by Myrj® (85 mg polyoxyethylene(50-stearate) in 100 ml 0.9% w/v sodium chloride solution).
The administered volume amounted to 0.2 ml/animal.
Rats with a weight of about 200 g were ovariectomized under anesthesia with ursotami and about 2 weeks after that the animal was tested in the presence of a castrated vaginal cell formation (dioestrus). After that 0.2 ml per animal of the test substance was administered once subcutaneously. Vaginal smears were taken 24, 48, 54 and 72 hours after the one-time administration of the test substance and subsequent oestrus stages were evaluated(dioestrus=1; proestrus=2; oestrus=3; metoestrus=4). The experiment was ended after four days according to the standard ALLEN-DOISY test. The animals were sacrificed under anesthesia in ether by dislocation of the neck vertebral column, the uterus was prepared and its moist weight (without secretion) was measured. The suprarenal capsules were also prepared and weighed.
The results of the colpotropic test—the occurrences of oestral vaginal cell forms as reagents per doses group and the uteropic activity(uterus weight) were measured. The average of the uterus weight of the test groups was compared with the average of the vehicular groups and, if necessary, the significance of the differences was determined by a t-test according to STUDENT. The moist weight of the suprarenal capsules of all groups was also determined.

[4] = tested on: Synaptosomal membrane fractions (rat); settings: for IC50: read-out: LIPID PEROXIDATION INHIBITION (IC50 μMol/l), synaptosomal membrane fractions (rat), 30 min at 37° C.; for antioxidative action in lipid peroxidation (in words): compared with 17α-estradiol and 17β-estradiol
[5] = target: T1, estrogen receptor (Homo sapiens, UniProt P03372); settings: background; natural 17β-estradiol = 100%; cited from earlier work
T1 sequence (P03372 1-595): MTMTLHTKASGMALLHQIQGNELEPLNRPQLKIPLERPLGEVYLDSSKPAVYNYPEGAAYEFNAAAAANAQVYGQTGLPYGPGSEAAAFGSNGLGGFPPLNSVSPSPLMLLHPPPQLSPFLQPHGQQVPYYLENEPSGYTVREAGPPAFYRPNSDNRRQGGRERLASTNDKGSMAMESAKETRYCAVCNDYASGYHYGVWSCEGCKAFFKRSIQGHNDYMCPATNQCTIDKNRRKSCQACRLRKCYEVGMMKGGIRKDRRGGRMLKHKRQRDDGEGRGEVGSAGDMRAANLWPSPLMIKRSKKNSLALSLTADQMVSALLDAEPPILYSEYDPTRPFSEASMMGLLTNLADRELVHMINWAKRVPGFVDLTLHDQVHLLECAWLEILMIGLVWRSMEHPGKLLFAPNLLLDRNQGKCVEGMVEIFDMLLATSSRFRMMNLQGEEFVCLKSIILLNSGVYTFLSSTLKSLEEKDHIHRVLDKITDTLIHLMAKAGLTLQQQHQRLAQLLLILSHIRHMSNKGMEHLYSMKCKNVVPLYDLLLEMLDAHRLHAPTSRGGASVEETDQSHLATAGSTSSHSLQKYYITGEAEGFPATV

[6] = target: T1, estrogen receptor; test: Relative binding affinity to estrogen receptor sites; settings: relative to 17β-estradiol = 100
[7] = background statement; cited from earlier work

| SMILES | FE(II)-AUTOXIDATION Inhibition, % [1] | FE(III)-REDUCTION Stimulation, % [2] | IC50 [4] [µmol/L] | effect on the Fe(II)-autooxidation process (in words) [1] | other results |
| --- | --- | --- | --- | --- | --- |
| C[C@]12CC[C@@H]3c4cc(O)c(O)cc4CC[C@H]3[C@@H]1CC[C@@H]2O [2-hydroxy-17β-estradiol] | 64.20% | 35.26% |  |  |  |
| C[C@]12CC[C@@H]3c4ccc(O)c(O)c4CC[C@H]3[C@@H]1CC[C@H]2O [4-hydroxy-17α-estradiol] | 59.51% | 32.71% |  |  |  |
| C[C@]12CC[C@@H]3c4ccc(O)cc4CC[C@H]3[C@@H]1CC[C@H]2O [17α-estradiol] | ≦1% | ≦1% | 8.9 | do not or do not substantial change | Allen-Doisy Test, flaking, d1-d4 vaginal scale stage 3 (reagent/group) ([3]; 10 μg/animal): 0/6; Allen-Doisy Test, flaking, d1-d4 vaginal scale stage 3 (reagent/group) ([3]; 100 μg/animal): 6/6 |
| C[C@]12CC[C@@H]3c4ccc(O)cc4CC[C@H]3[C@@H]1CC[C@@H]2O [17β-estradiol] | ≦1% | ≦1% | 12.4 | do not or do not substantial change | Allen-Doisy Test, flaking, d1-d4 vaginal scale stage 3 (reagent/group) ([3]; 0.03 μg/animal): 1/5; Allen-Doisy Test, flaking, d1-d4 vaginal scale stage 3 (reagent/group) ([3]; 0.1 μg/animal): 5/5 |
| CN(C)c1ccc(CC2(O)CCC3C4CCc5cc(O)ccc5C4=CCC32C)cc1 (stereo not drawn) [J 844, 17α-4′-dimethylamino-phenylmethyl-estra-1,3,5(10),9(11)-tetraen-3,17-diol] |  |  |  |  | binding affinity to estrogen receptor sites [5]: less than 1%; relative binding affinity (% binding to estrogen receptor) [6]: 0.7% |
| COc1ccc2c(c1)CC[C@@H]1[C@@H]2CC[C@@]2(C)[C@H]1CC[C@@]2(O)Cc1ccc(N(C)C)cc1 [J 848, 3-methoxy-17α-4′-dimethylamino-phenylmethyl-estra-1,3,5(10)-trien-17-ol] |  |  |  |  | Allen-Doisy Test, flaking, d1-d4 vaginal scale stage 3 (reagent/group) ([3]; 30 μg/animal): 0/5; Allen-Doisy Test, flaking, d1-d4 vaginal scale stage 3 (reagent/group) ([3]; 300 μg/animal): 2/5; estrogen activity in vivo [7]: high estrogen activity |
| C[C@]12CC[C@H]3c4ccc(O)cc4CC[C@@H]3[C@H]1CC[C@H]2O [J 855, 8α, 9β, 14β-estra-1,3,5(10)-trien-3,17α-diol] |  |  |  |  | Allen-Doisy Test, flaking, d1-d4 vaginal scale stage 3 (reagent/group) ([3]; 1000 μg/animal): 5/5; Allen-Doisy Test, flaking, d1-d4 vaginal scale stage 3 (reagent/group) ([3]; 10000 μg/animal): 5/5 |
| Cc1ccc(O)c2c1CC[C@@H]1[C@@H]2CC[C@]2(C)[C@@H](O)CC[C@@H]12 [J 1178, 4-methyl-estra-1,3,5(10)-trien-1,17β-diol] | 22.26% | 19.23% | 1.7 | have the ability to inhibit the Fe(II)-autooxidation process | Allen-Doisy Test, flaking, d1-d4 vaginal scale stage 3 (reagent/group) ([3]; 1000 μg/animal): 0/5; Allen-Doisy Test, flaking, d1-d4 vaginal scale stage 3 (reagent/group) ([3]; 10000 μg/animal): 1/5; antioxidative action in lipid peroxidation (in words) [4]: considerably stronger antioxidative action; relative binding affinity (% binding to estrogen receptor) [6]: 0.04% |
| Cc1ccc(O)c2c1CC[C@@H]1[C@@H]2CC[C@]2(C)[C@H](O)CC[C@@H]12 [J 1179, 4-methyl-estra-1,3,5(10)-trien-1,17α-diol] | 26.07% | 21.41% | 1.94 | have the ability to inhibit the Fe(II)-autooxidation process | Allen-Doisy Test, flaking, d1-d4 vaginal scale stage 3 (reagent/group) ([3]; 10000 μg/animal): 0/5; antioxidative action in lipid peroxidation (in words) [4]: considerably stronger antioxidative action; relative binding affinity (% binding to estrogen receptor) [6]: <0.03% |
| Cc1cc(C(C)(C)C)c(O)c(C(C)(C)C)c1 [butyrohydroxytoluene (BHT), butyrohydroxytoluene] |  |  | 0.95 |  |  |
| Cc1c(C)c2c(c(C)c1O)CC[C@@](C)(CCC[C@H](C)CCC[C@H](C)CCCC(C)C)O2 [α-tocopherol (Vitamin E), α-tocopherol] |  |  | 117 |  |  |
